Assays:
PRDX1 = molecular target: T1, PRDX1 (Homo sapiens, UniProt Q06830); assay: Competitive immunoprecipitation / immunoblot for PRDX1 with compound-coupled resin; format: binding; conditions: untreated MDA-MB-231 cell lysates; not trapped from lysates pre-treated with unbound compound
T1 construct: treatment of untreated MDA-MB-231 cell lysates with a resin coupled to compound 24; endogenous in cells; host or cells: MDA-MB-231 (ATCC HTB-26)
T1 sequence (Q06830 1-199): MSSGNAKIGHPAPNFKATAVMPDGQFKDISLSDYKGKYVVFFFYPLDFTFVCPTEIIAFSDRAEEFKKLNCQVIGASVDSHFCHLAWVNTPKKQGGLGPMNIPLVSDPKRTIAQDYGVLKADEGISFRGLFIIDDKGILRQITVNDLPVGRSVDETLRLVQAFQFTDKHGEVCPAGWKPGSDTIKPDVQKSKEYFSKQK
Description: As indicated in the brief description of the figures, the treatment of untreated MDA-MB-231 cell lysates with a resin coupled to compound 24 (24-coupled resin) were subjected to immunoprecipitation analysis for PRDX1 [for the methodology to perform immunoprecipitation and western blot analysis of PRDXs see Am J Physiol Heart Circ Physiol. 2008 Jul; 295(1): H425-H433 (ref. 34); and Oncogene. 2013 November 7; 32(45): 5302-5314 (ref. 35)].

[1] = tested on: JNK, p38, AKT, ERK1/2, STAT3; assay: Immunoblot of phosphorylated MAPKs, STAT3 and Akt in treated TNBC cells; format: cell-based, human; conditions: MDA-MB-231 5 µM, 1 h, BT-549 1 µM, 3 h
Method: MDA-MB-231 cells were incubated with compound 24 (5 µM, 1 h), then washed with cold PBS-vanadate (1 mM). The same process was done with BT-549 cells with the exception that the cells were incubated with compound 24 at 1 µM of 3 h. PRDX1 knockdown cells, or compound 24 treated cells, were then lysed with cold RIPA containing protease and phosphatase inhibitors or with a buffer containing 20 mM Tris-HCI, pH = 7, 140 mM NaCl, 50 mM EDTA, 10% glycerol, 1% NP-40, and protease and phosphatase inhibitors. Lysates were centrifuged at 20,000 × g, at 4 °C for 10 min, and supernatants were collected. Protein concentration of lysis extracts was measured by BCA. Electrophoresis sample buffer containing 10% β-mercaptoethanol was added to 60 µg of extracts. In the case of non-reducing electrophoresis, cells were incubated with cold PBS containing 25 mM NEM for 30 min before lysis, and β-mercaptoethanol was omitted in the electrophoresis sample buffer. Samples were separated by sodium dodecyl sulfate - polyacrylamide gel electrophoresis (SDS-PAGE) and transferred onto nitrocellulose or PVDF (polyvinylidene difluoride) membranes. […] Protein bands were visualized with the Immun-Star Western chemiluminescence kit (Bio-rad) using the ChemiDoc XRS System and the image analysis program Quantity One (Bio-Rad). […]

PRDX1 and/or PRDX2 = assay: Resin-bound affinity chromatography with competition/elution by free compound (type of binding); design: species or system human; conditions: MDA-MB-231 cell lysates; pre-incubation 1.5 hours with 50 micrograms of free compound; SDS-PAGE, silver staining
Method: The immobilization of compound (24) and the identification of its targets was accomplished using a previously described method [Orive-Ramos A, Seoane S, Ocaña A, Pandiella A, Montero JC. Regulation of the prometastatic neuregulin-MMP13 axis by SRC family kinases: therapeutic implications. Mol Oncol. 2017 Dec; 11(12): 1788-1805] (ref. 32). Briefly, 5 mg of the compound was dissolved in a coupling solution (50% dimethylformamide, 50% 0.1 M Na2CO3), and incubated with 0.5 mg of epoxy-activated sepharose 6B (GE Healthcare Life Sciences; Piscataway, NJ, USA), obtaining a CM728-coupled resin. A control resin was prepared without the compound (uncoupled). Both resins were incubated with 25 mg of cell extracts from MDA-MB-231 and BT-549 cancer cells.
The resulting complexes were retrieved by centrifugation, washed with lysis buffer, re-suspended and boiled in loading buffer and resolved in SDS-PAGE. The gel was silver stained and the bands of interest were excised, digested by trypsin (Figure 1). […]
In another experiment the resins collected after being incubated with cell lysates (analyzed in lanes 1 and 2) were further treated with free compound 24 to elute non-covalent compound 24 specific, binding proteins. […]

manner in which compound binds to PRDX1 and/or PRDX2 (PRDX1 and/or PRDX2): non-reversible covalent manner
SMILES: O=C1C2=C(C(=O)c3c(O)ccc(O)c31)N(c1cccnc1)Cc1ccccc1O2 [Compound 24, 7,10-dihydroxy-12-(pyridin-3-yl)-12,13-dihydrobenzo[f]naphtho[2,3-b][1,4]oxazepine-6,11-dione]
trapping of PRDX1 by compound-coupled resin (PRDX1): PRDX1 was clearly trapped by the 24-coupled resin
activation of STAT3 [1]: a decrease in the activation of STAT3
levels of activated JNK, p38, AKT and ERK1/2 [1]: an increase in the levels of activated JNK, p38, AKT and ERK1/2

Reference: patent EP4177246A1, “FUSED OXAZEPINES AS INHIBITORS OF PEROXIREDOXINS” (Centro Atlántico del Medicamento, SA, priority 2021, dated 2023)
